Earlier results, collected in US9144554B2, “Topical compositions for use in the prevention and/or treatment of dermatitis” (priority 2011, dated 2015).

Conditions: medicaments used to treat dermatitis

Row | Molecule | Toxicity
1 | CN(Cc1cnc2nc(N)nc(N)c2n1)c1ccc(C(=O)N[C@@H](CCC(=O)O)C(=O)O)cc1 [methotrexate] | toxic
2 | ivermectin | toxic
